For orientation: EC50 means the concentration at which the effect is half-maximal.

The test relates to recombinant NL-Rluc virus. Description: Inhibition of HIV replication (NL-RLuc virus luciferase assay in MT-2 cells). The test is classed as cell-based. The following applies: Human immunodeficiency virus 1, MT2, 120 h.
As to `Cc1cc(CNC(=O)c2cn3c(N4CCC(C)(C)CC4)c([C@H](OC(C)(C)C)C(=O)O)c(C)cc3n2)ccc1F` [Example 1, (S)-2-(tert-Butoxy)-2-(5-(4,4-dimethylpiperidin-1-yl)-2-((4-fluoro-3-methylbenzyl)carbamoyl)-7-methylimidazo[1,2-a]pyridin-6-yl)acetic acid], the EC50 came to 8 nM. Take `Cc1cc2nc(-c3ncc(Cc4ccc(F)cc4)o3)cn2c(N2CCC(C)(C)CC2)c1[C@H](OC(C)(C)C)C(=O)O` [Example 2, (S)-2-(tert-Butoxy)-2-(5-(4,4-dimethylpiperidin-1-yl)-2-(5-(4-fluorobenzyl)oxazol-2-yl)-7-methylimidazo[1,2-a]pyridin-6-yl)acetic acid]: the EC50 worked out at 2 nM. Consider `Cc1cc2nc(-c3ncc(Cc4ccc(F)cc4)s3)cn2c(N2CCC(C)(C)CC2)c1[C@H](OC(C)(C)C)C(=O)O` [Example 3, (S)-2-(tert-Butoxy)-2-(5-(4,4-dimethylpiperidin-1-yl)-2-(5-(4-fluorobenzyl)thiazol-2-yl)-7-methylimidazo[1,2-a]pyridin-6-yl)acetic acid], for which the EC50 was determined as 21 nM. The figure for `Cc1cc2nc(-c3nc(Cc4ccccc4)no3)cn2c(N2CCC(C)(C)CC2)c1[C@H](OC(C)(C)C)C(=O)O` [Example 4, (S)-2-(2-(3-Benzyl-1,2,4-oxadiazol-5-yl)-5-(4,4-dimethylpiperidin-1yl)-7-methylimidazo[1,2-a]pyridin-6-yl)-2-(tert-butoxy)acetic acid] is 3 nM.

In the case of `Cc1cc2nc(-c3nnc(Cc4ccccc4)o3)cn2c(N2CCC(C)(C)CC2)c1[C@H](OC(C)(C)C)C(=O)O` [Example 5, (S)-2-(2-(5-Benzyl-1,3,4-oxadiazol-2-yl)-5-(4,4-dimethylpiperidin-1-yl)-7-methylimidazo[1,2-a]pyridin-6-yl)-2-(tert-butoxy)acetic acid], the EC50 was found to be 8 nM.

With `Cc1cc2nc(-c3nc(Cl)c(Cc4ccc(F)cc4)[nH]3)cn2c(N2CCC(C)(C)CC2)c1[C@H](OC(C)(C)C)C(=O)O` [Example 6, (S)-2-(tert-Butoxy)-2-(2-(4-chloro-5-(4-fluorobenzyl)-1H-imidazol-2-yl)-5-(4,4-dimethylpiperidin-1-yl)-7-methylimidazo[1,2-a]pyridin-6)acetic acid], the EC50 amounted to 13 nM. Then `Cc1cc2nc(-c3ncc(Cc4ccc(F)cc4)[nH]3)cn2c(N2CCC(C)(C)CC2)c1[C@H](OC(C)(C)C)C(=O)O` [Example 7, (S)-2-(tert-Butoxy)-2-(5-(4,4-dimethylpiperidin-1-yl)-2-(5-(4-fluorobenzyl)-1H-imidazol-2-yl)-7-methylimidazo[1,2-a]pyridin-6-yl)acetic acid], with 34 nM; and `C=CCOC1(C)CCN(c2c([C@H](OC(C)(C)C)C(=O)O)c(C)cc3nc(NS(=O)(=O)Cc4ccc(F)cc4)cn23)CC1` [Example 8, (S)-2-(5-(4-(Allyloxy)-4-methylpiperidin-1-yl)-2((4-fluorophenyl)methylsulfonamido)-7-methylimidazo[1,2-a]pyridin-6-yl)-2-(tert-butoxy)acetic acid], with 3300 nM; and `C=CCOC1(C)CCN(c2c([C@H](OC(C)(C)C)C(=O)O)c(C)cc3nc(NS(=O)(=O)c4ccc(F)cc4)cn23)CC1` [Example 9, (S)-2-(5-(4-(Allyloxy)-4-methylpiperidin-1-yl)-2-(4-fluorophenylsulfonamido)-7-methylimidazo[1,2-a]pyridin-6-yl)-2-(tert-butoxy)acetic acid], with 6030 nM.

Values taken from patent US9655889B2, “Inhibitors of human immunodeficiency virus replication” (priority 2013, dated 2017).
